pIC50: −log10 of the molar value.
Experiments:
human smooth muscle cell = test: in vitro human smooth muscle cell culture testing, incorporated thymidine; type: cell-based; details: exposure for 8 hours, concentrations 0.0001-1 μM
Procedure: The amounts of incorporated thymidine for samples of Myolimus of varying concentrations (0.0001, 0.001, 0.01, 0.1, and 1 μM) and of rapamycin of varying concentrations (0.0001, 0.001, 0.01, 0.1, and 1 μM) were measured after exposure for 8 hours (as shown in FIG. 1). The IC50 of both Myolimus and Rapamycin was 0.1 nM indicating potent anti-proliferative properties.

MMP-9 = test: cytokine inhibition in LPS-activated macrophages, ELISA (MMP-9); type: cell-based; details: 10 nM
Procedure: (§1) In cell culture studies, macrophages were activated to secrete cytokines such as MMP-9 and MCP-1 by treating the cells to E Coli lippopolysaccharide (LPS). Inhibition of these cytokines upon treatment of the activated macrophages with Myolimus and rapamycin with 10 nM concentration was tested using ELISA assay.

MCP-1 = test: cytokine inhibition in LPS-activated macrophages, ELISA (MCP-1); type: cell-based; details: 10 nM
Procedure: as §1

[1] = in vivo; cited from earlier work
[2] = cited from earlier work

CO[C@H]1C[C@@H]2CC[C@@H](C)[C@@](O)(O2)C(=O)C(=O)N2CCCC[C@H]2C(=O)O[C@H]([C@H](C)C[C@@H]2CC[C@@H](O)[C@H](OC)C2)CC[C@H](C)/C=C(\C)[C@@H](O)[C@@H](OC)C(=O)[C@H](C)C[C@H](C)/C=C/C=C/C=C/1C [Myolimus, 32-deoxorapamycin]
pIC50 (human smooth muscle cell): 10.00 | production of MMP-9 (MMP-9): reduced the production | production of MMP-9 (MMP-9; listed as myolimus): inhibiting production | production of MCP-1 (MCP-1): reduced the production | production of MCP-1 (MCP-1; listed as myolimus): inhibiting the production

CO[C@H]1C[C@@H]2CC[C@@H](C)[C@@](O)(O2)C(=O)C(=O)N2CCCC[C@H]2C(=O)O[C@H]([C@H](C)C[C@@H]2CC[C@@H](O)[C@H](OC)C2)CC(=O)[C@H](C)/C=C(\C)[C@@H](O)[C@@H](OC)C(=O)[C@H](C)C[C@H](C)/C=C/C=C/C=C/1C [Rapamycin]
bioavailability [1]: very low and variable | pIC50 (human smooth muscle cell): 10.00 | solubility in water [2]: only very slightly soluble | production of MMP-9 (MMP-9): increased the production | production of MCP-1 (MCP-1): did not have any impact
